# Source: US5684151A, “1-arylsulphonyl, arylcarbonyl and 1-arylphosphonyl-3-phenyl-1,4,5,6-tetrahydropyridazines” (priority 1995, dated 1997)
# Like-named read-outs stand apart in the source and are kept apart here.
# Columns and labels:
# [1] = target: T1, progestin receptor from rabbit uterus (Oryctolagus cuniculus, UniProt P06186); test: Progestin receptor binding (3H-R5020 displacement); details: rabbit uterine cytosol, 4° C., 18 h, read-out: IC50: Binding affinity for the progestin receptor from rabbit uterus
# T1 construct: Cytosolic progestin receptor were obtained by mixing rabbit uterine tissue with a Tris buffer; from tissue; host or cells: rabbit uterus cytosol
# Procedure, shortened: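 Displacement of the radioligand 3H-R5020 was measured in cytosol from homogenized rabbit uterus (pH 7.4 Tris/EDTA/DTT/molybdate buffer), with compounds at 5% final DMSO and about 18 h at 4 °C. Charcoal removed free ligand, scintillation counting quantified bound ligand, and IC50 was the concentration displacing half.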
# [2] = system: mouse (MC3T3-E1) and human (TE-85) osteoblast-line cells; format: cell-based
# Procedure, shortened: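 Proliferation was read as ^3H-thymidine (0.4 μCi) uptake during a 4 h pulse, which started 20 h after compound addition. Before dosing, cells sat 24 h in 0.1% FBS. Values are % times control (100%).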
# T1 sequence (P06186 whole entry): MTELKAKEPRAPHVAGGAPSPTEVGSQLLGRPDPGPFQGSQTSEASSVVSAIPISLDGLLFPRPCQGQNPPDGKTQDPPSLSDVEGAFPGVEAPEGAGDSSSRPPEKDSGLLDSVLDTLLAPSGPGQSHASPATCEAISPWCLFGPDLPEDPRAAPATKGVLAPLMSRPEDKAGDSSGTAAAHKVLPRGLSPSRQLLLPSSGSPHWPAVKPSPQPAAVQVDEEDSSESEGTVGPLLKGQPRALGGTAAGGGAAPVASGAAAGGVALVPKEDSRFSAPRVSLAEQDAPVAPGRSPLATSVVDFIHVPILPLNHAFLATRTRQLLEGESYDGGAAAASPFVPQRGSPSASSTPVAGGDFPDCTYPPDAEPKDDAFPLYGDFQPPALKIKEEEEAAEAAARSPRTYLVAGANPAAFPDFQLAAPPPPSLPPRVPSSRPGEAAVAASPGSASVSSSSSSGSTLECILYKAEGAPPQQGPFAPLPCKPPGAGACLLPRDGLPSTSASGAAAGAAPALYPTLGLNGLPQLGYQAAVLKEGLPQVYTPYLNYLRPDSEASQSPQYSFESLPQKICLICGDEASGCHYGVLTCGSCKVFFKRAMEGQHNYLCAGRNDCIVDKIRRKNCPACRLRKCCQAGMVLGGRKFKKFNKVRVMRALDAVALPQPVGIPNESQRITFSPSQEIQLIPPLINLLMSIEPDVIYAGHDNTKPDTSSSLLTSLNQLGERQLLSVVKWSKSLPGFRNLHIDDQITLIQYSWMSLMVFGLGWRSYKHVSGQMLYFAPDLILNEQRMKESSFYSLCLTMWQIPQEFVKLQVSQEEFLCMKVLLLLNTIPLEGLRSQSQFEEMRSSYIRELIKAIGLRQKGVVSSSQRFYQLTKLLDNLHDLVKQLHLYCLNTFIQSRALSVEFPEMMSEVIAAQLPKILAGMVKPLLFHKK
SMILES,IC50 [1] [nM],"Osteoblast Cell Proliferation, 3H-thymidine incorporation vs control (100%) ([2]; 10^-6) [%]","Osteoblast Cell Proliferation, 3H-thymidine incorporation vs control (100%) ([2]; 10^-7) [%]","Osteoblast Cell Proliferation, 3H-thymidine incorporation vs control (100%) ([2]; 10^-8) [%]","Osteoblast Cell Proliferation, 3H-thymidine incorporation vs control (100%) ([2]; 10^-9) [%]","Osteoblast Cell Proliferation, 3H-thymidine incorporation vs control (100%) ([2]; 10^-10) [%]"
O=S(=O)(c1ccccc1)N1CCCC(c2ccc(-c3ccccc3)cc2)=N1 [Compound 86],228,100,114,94,103,101
O=C(c1ccccc1)N1CCCC(c2ccccc2)=N1 [Compound 196],100000,102,97,102,92,104
COP(=O)(c1ccccc1)N1CCCC(c2ccccc2)=N1 (stereo not drawn) [Compound 252],10000,75,86,79,97,86
COc1ccc(C(=O)N2CCCC(c3ccc(Cl)cc3)=N2)cc1 [Compound 194],100000,93,130,136,138,144
COP(=O)(c1ccccc1)N1CCCC(c2ccc(Cl)c(C(F)(F)F)c2)=N1 (stereo not drawn) [Compound 261],131,98,105,95,100,111
Cc1ccc(C(=O)N2CCCC(c3ccc(Cl)cc3)=N2)cc1 [Compound 192],100000,115,131,128,132,148
"O=C(c1ccccc1)N1CCCC(c2ccc(Cl)cc2)=N1 [Compound 191, 1-Benzoyl-3-(4-chlorophenyl)-1,4,5,6-tetrahydropyridazine]",100000,86,133,126,133,123
"COC12CCCCC1CC(c1ccccc1)=NN2S(=O)(=O)c1ccc(C)cc1 (stereo not drawn) [Compound 159, 1,4,4a,5,6,7,8,8a-Octahydro-8a-methoxy-1-(4-methyl-benzenesulfonyl)-3-phenyl-1,2-diazanapthalene]",1380,97,100,91,97,105
O=C(c1ccc([N+](=O)[O-])cc1)N1CCCC(c2ccc(Cl)cc2)=N1 [Compound 202],279,98,108,110,116,128
Cc1ccc(S(=O)(=O)N2CCCC(c3ccc(F)cc3)=N2)cc1 [Compound 9],362,65,94,128,102,119
"Cc1ccc(S(=O)(=O)N2N=C(c3cccc(Br)c3)CC3C4C5C=CC(C5)C4CC32)cc1 (stereo not drawn) [Compound 161, 1,4,4a,9a-Tetrahydro-1-(4-methylbenzenesulfonyl)-3-(3bromophenyl)bicyclo[2.2.1]hept-7-enyl[5.6-a]cyclopenta[1.2-e]pyridazine]",3000,76,95,113,122,112
CC(=O)Nc1ccc(S(=O)(=O)N2CCCC(c3ccc(Cl)cc3)=N2)cc1 [Compound 154],819,97,111,107,124,115
O=P(OC1CCCC1)(c1ccccc1)N1CCCC(c2ccc(Cl)c(Cl)c2)=N1 (stereo not drawn) [Compound 257],300,86,114,122,112,114
"O=S(=O)(c1c(F)c(F)c(F)c(F)c1F)N1CCCC(c2ccc(F)cc2)=N1 [Compound 152, 3-(4-Fluorophenyl)-1-(pentafluorobenzenesulfonyl)-1,4,5,6-tetrahydropyridazine]",175,87,123,124,149,161
O=S(=O)(c1ccc2ccccc2c1)N1CCCC(c2cccc(Cl)c2)=N1 [Compound 94],14.6,110,85,90,110,130
O=C(c1ccc([N+](=O)[O-])cc1)N1CCCC(c2ccc(Cl)c(Cl)c2)=N1 [Compound 217],102,86,87,91,72,52
COc1ccc(C2=NN(C(=O)c3ccc(Cl)cc3)CCC2)cc1 [Compound 184],100000,84,102,113,146,131
O=C(c1ccc([N+](=O)[O-])cc1)N1CCCC(c2ccc(F)cc2)=N1 [Compound 203],978,73,85,102,98,106
O=C(c1ccc(Cl)cc1)N1CCCC(c2ccc(Cl)cc2)=N1 [Compound 193],10000,107,161,162,190,208
COc1ccc(C(=O)N2CCCC(c3ccccc3)=N2)cc1 [Compound 183],100000,88,133,131,136,135
O=C(c1ccc(Br)cc1)N1CCCC(c2ccc(Cl)cc2)=N1 [Compound 198],10000,94,97,112,99,85
CCCCc1ccc(C2=NN(S(=O)(=O)c3ccc4ccccc4c3)CCC2)cc1 [Compound 72],10000,113,119,129,120,123
